Here are results for 9 compounds from ChEMBL document CHEMBL1137928, “Plasmepsin II inhibition and antiplasmodial activity of Primaquine-Statine 'double-drugs'” (Bioorg Med Chem Lett, 2004).

Assay [1] concerns Plasmodium falciparum. The assay can be described thus: Inhibition of Plasmodium falciparum. The format is functional, organism-based.
Assay [2] addresses T1, Plasmepsin II (Plasmodium falciparum, UniProt P46925). The assay can be described thus: In vitro concentration required for inhibition of Plasmodium falciparum plasmepsin-2.
Assay [3] has as its target T1, Plasmepsin II. The assay can be described thus: In vitro binding affinity towards Plasmodium falciparum plasmepsin-2.
The test system of assay [4] is Plasmodium falciparum. Briefly: In vitro inhibitory activity against chloroquine-resistant Plasmodium falciparum W2 infected human erythrocytes at 9 uM. It counts as functional.
Assay [5] deals with Plasmodium falciparum. Briefly: In vitro inhibitory activity against chloroquine-sensitive Plasmodium falciparum D-10 infected human red blood cells at 9 uM. It counts as functional.
Assay [6] deals with Plasmodium falciparum. Briefly: In vitro inhibitory activity against chloroquine-sensitive Plasmodium falciparum D10 infected human red blood cells. The format is functional, organism-based.
Assay [7] deals with Plasmodium falciparum. Briefly: In vitro inhibitory activity against chloroquine-resistant Plasmodium falciparum W-2 infected human erythrocytes. It counts as functional, organism-based.

A value given as a limit tells only on which side of the number the result lay.

T1 sequence (P46925 whole entry): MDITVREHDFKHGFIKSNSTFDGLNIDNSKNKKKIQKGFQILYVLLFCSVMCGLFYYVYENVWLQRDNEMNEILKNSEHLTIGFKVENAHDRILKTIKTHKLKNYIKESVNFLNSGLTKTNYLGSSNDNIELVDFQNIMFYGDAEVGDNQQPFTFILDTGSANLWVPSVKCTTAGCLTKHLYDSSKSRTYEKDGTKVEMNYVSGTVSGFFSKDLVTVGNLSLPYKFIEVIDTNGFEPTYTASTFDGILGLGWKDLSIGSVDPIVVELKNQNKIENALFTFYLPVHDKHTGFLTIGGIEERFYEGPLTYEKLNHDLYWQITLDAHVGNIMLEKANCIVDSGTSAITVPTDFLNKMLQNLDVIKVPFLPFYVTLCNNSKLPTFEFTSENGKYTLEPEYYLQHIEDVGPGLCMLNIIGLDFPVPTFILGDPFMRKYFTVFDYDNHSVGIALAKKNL

On to `CCCCNC(=O)C[C@H](O)[C@H](CC(C)C)NC(=O)[C@@H](NC(=O)c1ccc(Oc2ccc(C(=O)N[C@@H](CC(C)C)C(=O)O)cc2)cc1)C(C)CC` (stereo partly specified), for which the IC50 in the assay with Plasmodium falciparum [1] is approximately 17 µM; on Plasmepsin II [2], 123 nM.
As to `CCCCNC(=O)C[C@H](O)[C@H](CC(C)C)NC(=O)[C@@H](NC(=O)COc1ccc2ccccc2c1)[C@@H](C)CC`, affinity on Plasmepsin II [3] was put at a Ki of 180 nM.
On to `CCCCNC(=O)C[C@H](O)[C@H](CC(C)C)NC(=O)[C@@H](NC(=O)CCC(=O)N[C@@H](CC(C)C)C(=O)N[C@@H](CCCCN)C(=O)NCCCC(C)Nc1cc(OC)cc2cccnc12)[C@H](C)CC` (stereo partly specified), for which the results for the inhibition at 9 µM in the assay with Plasmodium falciparum [4] and with Plasmodium falciparum [5] were 40% and 20%, respectively. Moreover, on Plasmepsin II [2], the IC50 was determined as 396 nM.
Take `CCCCNC(=O)C[C@H](O)[C@H](CC(C)C)NC(=O)[C@@H](NC(=O)Cc1ccc(CC(=O)N[C@@H](CC(C)C)C(=O)N[C@@H](CCCCN)C(=O)NCCCC(C)Nc2cc(OC)cc3cccnc23)cc1)[C@H](C)CC` (stereo partly specified): the IC50 came out at 5.5 µM with Plasmodium falciparum [6], 4200 nM in the assay with Plasmodium falciparum [7] and 135 nM at Plasmepsin II [2].
Consider `CCCCNC(=O)C[C@H](O)[C@H](CC(C)C)NC(=O)[C@@H](NC(=O)c1ccc2cc(C(=O)OCCCC(=O)N[C@H](CC(C)C)C(=O)N[C@H](CCCCN)C(=O)NCCCC(C)Nc3cc(OC)cc4cccnc34)ccc2c1)[C@H](C)CC` (stereo partly specified), for which the IC50 is 3.3 µM in the assay with Plasmodium falciparum [6], 1000 nM in the assay with Plasmodium falciparum [7] and 9.6 nM at Plasmepsin II [2].
On the same counts, the results for `CCCCNC(=O)C[C@H](O)[C@H](CC(C)C)NC(=O)[C@@H](NC(=O)c1ccc2cc(C(=O)N[C@H](CC(C)C)C(=O)N[C@H](CCCCN)C(=O)NCCCC(C)Nc3cc(OC)cc4cccnc34)ccc2c1)[C@H](C)CC` (stereo partly specified) are 6.2 µM, 4700 nM and 1.51 nM.
For `COc1cc(NC(C)CCCNC(=O)[C@@H](N)CCCCN)c2ncccc2c1` (stereo partly specified), the IC50 with Plasmodium falciparum [1] was approximately 20 µM; against Plasmepsin II [2], more than 1000 nM.
In turn, `CCCCNC(=O)C[C@H](O)[C@H](Cc1ccccc1)NC(=O)[C@@H](NC(=O)COc1ccc2ccccc2c1)[C@@H](C)CC` came in with a Ki at Plasmepsin II [3] of 110 nM.
For the compound `CCCCNC(=O)C[C@H](O)[C@H](CC(C)C)NC(=O)[C@@H](NC(=O)c1ccc(Oc2ccc(C(=O)N[C@H](CC(C)C)C(=O)N[C@H](CCCCN)C(=O)NCCCC(C)Nc3cc(OC)cc4cccnc34)cc2)cc1)[C@H](C)CC` (stereo partly specified), the results for the IC50 in the assay on Plasmodium falciparum [6], in the assay with Plasmodium falciparum [7] and against Plasmepsin II [2] were 0.4 µM, 700 nM and 0.59 nM, respectively.

Usually IC50 stands for the midpoint of a concentration-inhibition curve. Low values mean greater potency in that assay, high ones weaker potency in that assay. As usually defined, the Ki is a dissociation constant, usually derived from enzyme kinetics or from competition with a known ligand. High values mean a looser hold on the target, low ones a stronger hold on the target. A word on the inhibition: it is the drop in the measured response relative to a control, in per cent. Lower therefore signals a weak effect.
